# Like-named read-outs stand apart in the source and are kept apart here.
# Assay: Half-life of ADR destruction by UVA light in the presence of test compounds (decrease in absorbance at 480 nm)
# Assay type: physicochemical
# [1] = UVA light, 100 μM test compound alone
# [2] = UVA light, 100 μM test compound with 0.5 μM riboflavin
Structure (SMILES),"Half-Life of ADR Destruction, 100 μM Test Compound [1]","Half-Life of ADR Destruction, 100 μM Test Compound and 0.5 μM Riboflavin [2]",other results
"COc1ccc2c(c1)c(CC(=O)O)c(C)n2C(=O)c1ccc(Cl)cc1 [Indomethacin, 1-(4-Chlorobenzoyl)-5-Methoxy-2-Methyl-indole-3-acetic acid, reference compound]",100.3 min,,
O=C(c1ccco1)c1cccs1 [2-Furyl-2-thienyl ketone],7.00 min,,
O=C(O)Cc1ccc(O)cc1 [4-Hydroxy Phenylacetic Acid],,75.3 min,
COc1ccccc1CN [2-Methoxy Benzylamine],,43.0 min,
"CC(C(=O)O)c1ccc2c(c1)[nH]c1ccc(Cl)cc12 (stereo not drawn) [6-Chlro-α-methyl-carbazole-2-acetic acid, reference compound]",,25.6 ± 11.2 min,
COc1ccc2cc(C(C)=O)ccc2c1 [6-Methoxy-2-acetonaphthone],15.8 min,,
O=C(O)c1cccc(O)c1 [3-Hydroxy Benzoic Acid],,23.2 min,
"O=C1CCc2ccccc2N1 [3,4-Dihydro-2(1H)-quinolinone]",,,"Half-Life of ADR Destruction, 100 μM Test Compound and 0.5 μM Riboflavin: 20.1 min"
O=S(=O)(O)c1ccc2ccccc2c1 [2-Naphthalenesulfonic acid],42.0 min,,
O=C1c2ccccc2-c2ncccc21 [4-Aza-9-fluorenone],,50.2 min,
"Cc1cc(CC(=O)O)n(C)c1C(=O)c1ccc(Cl)cc1 [Zomepirac, 5-(4-Chlorobenzoyl)-1,4-dimethyl-pyrrole-2-acetic acid, reference compound]",42.0 min,20.1 min,"Half-Life of ADR Destruction, 100 μM Test Compound (UVA light, 100 μM test compound alone, listed as 5-(4-Chlorobenzoyl)-1,4-dimethyl-pyrrole-2-acetic acid (Zomepirac)): 43.0 min"
"CN1C(C(=O)Nc2ccccn2)=C(O)c2ccccc2S1(=O)=O [Piroxicam, reference compound]",100.3 min,10.4 min,
"O=C1c2ccccc2C(=O)c2cnccc21 [Benz[γ]isoquinoline-5,10-dione]",<0.355 min,<0.261 min,
"Nc1ccc(C(=O)c2cccc(N)c2)cc1 [3,4′-Diamino-benzophenone]",,15.8 min,
Cc1c[nH]c2ccccc12 [3-Methyl Indole],,20.1 min,
OCc1cccc2ccccc12 [1-Naphthalenemethanol],,50.2 min,

Structure (SMILES),"Half-Life of ADR Destruction, 100 μM Test Compound [1]","Half-Life of ADR Destruction, 100 μM Test Compound and 0.5 μM Riboflavin [2]",other results
Cc1ccc(CO)cc1N [3-Amino-4-Methyl Benzyl Alcohol],,23.2 min,
NC(=O)c1ccc(N)cc1 [4-Aminobenzamide],,13.4 ± 4.7 min,
COC(=O)c1ccc(N)cc1 [Methyl-4-aminobenzoate],,10.8 min,
CCc1ccc(N)cc1 [4-Ethyl Aniline],,10.4 min,
CCC(=O)c1ccccc1 [Propriophenone],,,"Half-Life of ADR Destruction, 100 μM Test Compound: 43.0 min"
COc1ccc2[nH]c(C)cc2c1 [5-Methoxy-2-methyl Indole],,,"Half-Life of ADR Destruction, 100 μM Test Compound: 27.4 min; Half-Life of ADR Destruction, 100 μM Test Compound and 0.5 μM Riboflavin: 7.00 min"
NC(=O)c1ccccc1N [2-Aminobenzamide],,33.5 min,
O=C(O)/C=C/c1c[nH]c2ccccc12 [trans-3-Indoleacrylic acid],,6.84 min,
CCCCc1ccc(N)cc1 [4-Butyl Anilne],,,"Half-Life of ADR Destruction, 100 μM Test Compound and 0.5 μM Riboflavin: 7.17 min"
CC(=O)c1ccccc1O [2′-Hydroxyacetophenone],50.2 min,43.0 min,
"CC(=O)c1ccc2c(c1)OCCO2 [1,4-Benzodioxane-6-yl methyl ketone]",43.0 min,33.4 min,
Nc1ccc(Cc2ccccc2)cc1 [4-Aminodiphenylmethane],43.0 min,5.57 min,
"CC(C(=O)O)c1ccc(C(=O)c2ccccc2)s1 (stereo not drawn) [Tiaprofenic Acid, 2-Benzoyl-5-(x-methyl)-thiopheneacetic acid, reference compound]",3.20 min,3.24 min,
CCCc1ccccc1N [2-Propyl Aniline],,9.41 min,
COc1ccc(C(=O)c2cccs2)cc1 [2-(4-Methoxybenzoyl)-thiophene],9.41 min,8.36 min,
Nc1cccc(C(=O)O)c1 [3-Amino Benzoic Acid],,16.7 min,
